From publication PMC6843832, “Synthesis of Novel Analogs of Thieno[2,3-d] Pyrimidin-4(3H)-ones as Selective Inhibitors of Cancer Cell Growth” (Biomolecules, 2019) come the findings set out here.

One data set relates to PC-9 cells. Kind of data set: MTT assay, PC-9 cells. The class given is cell-based. The settings on record: human non-small cell lung cancer cells, 72 h, read-out: Cytotoxic activity (IC50) PC-9. As for the experimental part: (§1) Primary human liver HL-7702 cells were purchased from SIBS (Shanghai Institutes for Biological Sciences, Shanghai, China) while MCF-7, A549, PC-9 and PC-3 cells were from ATCC (American Type Culture Collection, Rockville, MD, USA). HL-7702, PC-9 and A549 cells were incubated with Roswell Park Memorial Institute (RPMI) 1640 medium and MCF-7 were cultured in Dulbecco’s Modified Eagle’s Medium (DMEM) supplemented with 10% heat-inactivated fetal bovine serum (FBS) and 1% antibiotics (penicillin and streptomycin). PC-3, a human prostate adenocarcinoma cell, was maintained in Ham’s F-12 Medium supplemented with 10% FBS, 1% penicillin/streptomycin and 1% glutamine. All cells were cultured at 37 °C in an incubator containing 5% CO2. The cell viability was determined by using the MTT (methyl thiazolyl tetrazolium bromide) assay. Briefly, cells were seeded in 96-well plates (4 × 10^3 cells/well) overnight and exposed to the synthesized compounds with various concentrations. Camptothecin and dimethyl sulfoxide (DMSO) served as a positive control and a negative control respectively. After 72 h of incubation, 20 μL of MTT (5 mg/mL in phosphate buffer saline (PBS)) were added into each well. Dissolved yellowish MTT is converted to an insoluble purple formazan during incubation (4 h). In order to dissolve the formazan crystals, 100 μL of lysis solution (10% SDS (sodium dodecyl sulfate)-5% isobutyl alcohol-0.01M HCl) was added into per well. Finally, the optical density (OD) of solution in the plates was measured using a microplate reader at 570 nm after dissolving overnight. Cell viability was calculated by using the following formula: […].

A further data set can be described thus: MTT assay, HL-7702 cells. The format is cell-based, human. The settings on record: HL-7702 cells (normal liver cells); normal human liver cells, MTT, 72 h; read-out: Cytotoxic activity (IC50) HL-7702. The method, then: as §1
A further data set has as its system A549 cells. Kind of data set: MTT assay, A549 cells. The format is cell-based. The settings on record: human non-small cell lung cancer cells, read-out: Cytotoxic activity (IC50) A549. As for the experimental part:
as §1

Another data set concerns PC-3 cells. Kind of data set: MTT assay, PC-3 cells. Conditions: human prostate cancer cells, 72 h, read-out: Cytotoxic activity (IC50) PC-3. The format is cell-based. The method, then:
as §1

For a further data set, the system named is MCF-7 cells. As to the kind of experiment: MTT assay, MCF-7 cells. The format is cell-based. The settings on record: MCF7, human breast cancer cells, 72 h, read-out: Cytotoxic activity (IC50) MCF-7. As for the experimental part:
as §1

Like-named read-outs stand apart in the source and are kept apart here.

For `O=c1c2c3c(sc2nc(-c2ccc(Cl)cc2)n1Cc1ccccc1)CCCC3` [Compound 1], the IC50 in the data set with PC-9 cells was more than 100 µM; in the data set with A549 cells (Homo sapiens, A549, 72 h), more than 100 µM; with PC-3 cells, more than 100 µM; with MCF-7 cells, more than 100 µM. Also, in the data set “MTT assay, HL-7702 cells”, the concentration for half-maximal inhibition (IC50) at 72 h is more than 100 µM.

For `O=c1c2c3c(sc2nc(-c2cccc(Cl)c2)n1Cc1ccccc1)COCC3` [Compound 25], the IC50 in the data set with PC-9 cells was more than 100 µM; with A549 cells (Homo sapiens, A549, 72 h), 44 ± 0.71 µM; with PC-3 cells, 94.2 ± 1.83 µM; with MCF-7 cells, more than 100 µM. The half-inhibitory concentration (IC50) at 72 h in “MTT assay, HL-7702 cells” was more than 100 µM.

Consider `CC[C@@]1(O)C(=O)OCc2c1cc1n(c2=O)Cc2cc3ccccc3nc2-1` [CAMPTOTHECIN, camptothecin, reference compound], for which the concentration for half-maximal inhibition (IC50) with PC-9 cells came to 0.09 ± 0.01 µM; in the data set with A549 cells (Homo sapiens, A549, 72 h), 0.1 ± 0.02 µM; in the data set with PC-3 cells, 0.85 ± 0.01 µM; in the data set on MCF-7 cells, 0.26 ± 0.05 µM. Moreover, the IC50 at 72 h in “MTT assay, HL-7702 cells” worked out at 0.11 ± 0.03 µM.

Take `Cc1ccc(-c2nc3sc4c(c3c(=O)n2Cc2ccccc2)CCCCC4)o1` [Compound 18]: the IC50 in the data set on PC-9 cells was found to be 58.28 ± 0.18 µM; with A549 cells (Homo sapiens, A549, 72 h), 63.2 ± 0.03 µM; in the data set on PC-3 cells it was 92 ± 2.34 µM; with MCF-7 cells, 96.36 ± 0.72 µM. The IC50 at 72 h in the data set “MTT assay, HL-7702 cells” is more than 100 µM.

As for `Cc1ccc(-c2nc3sc4c(c3c(=O)n2CCc2ccc(O)cc2)CCCC4)cc1` [Compound 10], the IC50 in the data set on PC-9 cells is 49.7 ± 2.27 µM; with A549 cells (Homo sapiens, A549, 72 h), less than 10 µM; in the data set with A549 cells (72 h) it was 8.51 ± 0.16 µM; with PC-3 cells it was 43.4 ± 2.73 µM; with MCF-7 cells it was 27.47 ± 0.02 µM. Further, the IC50 at 72 h in the data set “MTT assay, HL-7702 cells” was more than 100 µM.

As for `Cc1sc2nc(-c3ccc(Cl)cc3)n(CCc3ccc(O)cc3)c(=O)c2c1C` [Compound 23], the IC50 in the data set on PC-9 cells was more than 100 µM; in the data set with A549 cells (Homo sapiens, A549, 72 h), 46.14 ± 0.17 µM; in the data set on PC-3 cells, more than 100 µM; with MCF-7 cells, 70.64 ± 0.59 µM. Further, in “MTT assay, HL-7702 cells”, the IC50 at 72 h is more than 100 µM.

Regarding `Cc1ccc(-c2nc3sc4c(c3c(=O)n2CCc2ccc(O)cc2)CCOC4)cc1` [Compound 24], the IC50 was more than 100 µM in the data set on PC-9 cells; 32.9 ± 1.84 µM in the data set with A549 cells (Homo sapiens, A549, 72 h); more than 100 µM in the data set on PC-3 cells; more than 100 µM in the data set with MCF-7 cells. The IC50 at 72 h in “MTT assay, HL-7702 cells” is more than 100 µM.

Regarding `Cc1cc(-c2nc3sc4c(c3c(=O)n2CCc2ccc(O)cc2)CCCC4)sc1C` [Compound 8], the IC50 in the data set on PC-9 cells was 92.97 ± 0.52 µM; in the data set with A549 cells (Homo sapiens, A549, 72 h) it was 50.92 ± 0.07 µM; in the data set with PC-3 cells it was 87.75 ± 0.63 µM; in the data set with MCF-7 cells, more than 100 µM. For the same compound, in the data set “MTT assay, HL-7702 cells”, the concentration for half-maximal inhibition (IC50) at 72 h was more than 100 µM.

For `O=c1c2c3c(sc2nc(-c2ccc(F)cc2)n1CCc1ccc(O)cc1)CCCC3` [Compound 7], the IC50 with PC-9 cells was 44.8 ± 4.47 µM; in the data set on A549 cells (Homo sapiens, A549, 72 h) it was less than 10 µM; with A549 cells (72 h) it was 6.86 ± 0.98 µM; in the data set with PC-3 cells it was more than 100 µM; in the data set with MCF-7 cells, 10.4 ± 1.32 µM. Besides, the IC50 at 72 h in “MTT assay, HL-7702 cells” is more than 100 µM.

With `Cc1cc(-c2nc3sc4c(c3c(=O)n2Cc2ccccc2)CCCCC4)sc1C` [Compound 13], the IC50 with PC-9 cells is more than 100 µM; in the data set with A549 cells (Homo sapiens, A549, 72 h) it was 49.86 ± 0.3 µM; in the data set on PC-3 cells it was 92.5 ± 1.89 µM; in the data set on MCF-7 cells it was 75.94 ± 0.17 µM. Also, the IC50 at 72 h in the data set “MTT assay, HL-7702 cells” was more than 100 µM.

On to `Cc1sc2nc(-c3ccc(F)cc3)n(Cc3ccccc3)c(=O)c2c1C` [Compound 21], for which the IC50 with PC-9 cells was more than 100 µM; in the data set with A549 cells (Homo sapiens, A549, 72 h), more than 100 µM; in the data set with PC-3 cells, more than 100 µM; in the data set with MCF-7 cells it was more than 100 µM. Besides, the IC50 at 72 h in the data set “MTT assay, HL-7702 cells” is more than 100 µM.

On to `Cc1cc(-c2nc3sc4c(c3c(=O)n2Cc2ccccc2)CCCC4)sc1C` [Compound 6], for which the IC50 with PC-9 cells was more than 100 µM; in the data set with A549 cells (Homo sapiens, A549, 72 h), 17.4 ± 0.88 µM; in the data set with PC-3 cells it was more than 100 µM; in the data set on MCF-7 cells, 59.86 ± 0.34 µM. Moreover, the 50% inhibitory concentration (IC50) at 72 h in “MTT assay, HL-7702 cells” was more than 100 µM.

As to `O=c1c2c3c(sc2nc(-c2cccs2)n1CCc1ccc(O)cc1)CCCC3` [Compound 12], the IC50 turned out to be 54.2 ± 2.06 µM with PC-9 cells; 11.7 ± 0.12 µM in the data set on A549 cells (Homo sapiens, A549, 72 h); 21.9 ± 1.76 µM in the data set on PC-3 cells; 36.4 ± 1.41 µM with MCF-7 cells. Further, in the data set “MTT assay, HL-7702 cells”, the IC50 at 72 h was more than 100 µM.

With `Cc1ccc(-c2nc3sc4c(c3c(=O)n2Cc2ccccc2)CCCC4)o1` [Compound 3], the IC50 in the data set on PC-9 cells was 86.1 ± 1.28 µM; with A549 cells (Homo sapiens, A549, 72 h), 54.4 ± 1.83 µM; with PC-3 cells it was 92.9 ± 2.29 µM; with MCF-7 cells it was more than 100 µM. In addition, in the data set “MTT assay, HL-7702 cells”, the IC50 at 72 h is 55.17 ± 0.5 µM.
